Experimental data as given in patent publication US20090155784A1, “ASSESSMENT OF ASTHMA AND ALLERGEN-DEPENDENT GENE EXPRESSION” (Wyeth, priority 2007, published 2009).

Assays:
[1] = test system: PBMCs from asthma subjects; experiment: HG-U133A baseline gene expression in PBMCs of asthma subjects (AOS), cPLA2 inhibitor in the absence of allergen (no AG); assay type: cell-based, human
Excerpt: PBMCs were stimulated in vitro with a cocktail containing 4 different allergens from house dust mite, ragweed and cat. Recombinant allergens, Der p1, Der f2, Fel d1 (Indoor Biotech, Charlottesville, Va.) and natural ragweed allergen (Allergy Lab, Seattle, Wash.) were selected and screened for endotoxin contamination (LAL Endotoxin Test, Catalog #HIT302, sensitivity, 0.0001 Eu/ml, Cell Sciences, Canton, Mass.). The sensitivity of the subjects was unknown but the allergens were chosen based on the estimate that 80% of allergic individuals are believed to react to one or more of these allergens. Culture medium contained RPMI-1640 (Sigma) with 10% heat inactivated FCS (Sigma St. Louis, Mo.) and 100 unit/mL Penicillin and […] Streptomycin and 0.292 mg/mL Glutamine (GIBCO RL Invitrogen, Carlsbad, Calif.). The final allergen cocktail concentrations in culture medium were: Der p1 and Der f2 (dust mite), 1 mg/ml; Fel d1 (cat), 1.25 mg/ml; ragweed, 125 mg/ml. […]
RNA was purified using QIA shredders and Rneasy mini kits (Qiagen, Valencia, Calif.). […] Eluted RNA was quantified using a Spectramax96 well plate UV reader (Molecular Devices, Sunnyvale, Calif., USA) monitoring A260/280 OD values. The quality of each RNA sample was assessed by capillary electrophoresis alongside an RNA molecular weight ladder on the Agilent 2100 bioanalyzer (Agilent Technologies, Palo Alto, Calif., USA). […]

[2] = test system: PBMCs from asthma subjects; experiment: HG-U133A transcriptional profiling of allergen-stimulated PBMCs of asthma subjects (AOS), with and without cPLA2 inhibitor, 6 days culture; clustering and Ingenuity pathway analysis; assay type: cell-based, human
Excerpt: PBMCs were stimulated in vitro with a cocktail containing 4 different allergens from house dust mite, ragweed and cat. Recombinant allergens, Der p1, Der f2, Fel d1 (Indoor Biotech, Charlottesville, Va.) and natural ragweed allergen (Allergy Lab, Seattle, Wash.) were selected and screened for endotoxin contamination (LAL Endotoxin Test, Catalog #HIT302, sensitivity, 0.0001 Eu/ml, Cell Sciences, Canton, Mass.). The sensitivity of the subjects was unknown but the allergens were chosen based on the estimate that 80% of allergic individuals are believed to react to one or more of these allergens. Culture medium contained RPMI-1640 (Sigma) with 10% heat inactivated FCS (Sigma St. Louis, Mo.) and 100 unit/mL Penicillin and […] Streptomycin and 0.292 mg/mL Glutamine (GIBCO RL Invitrogen, Carlsbad, Calif.). The final allergen cocktail concentrations in culture medium were: Der p1 and Der f2 (dust mite), 1 mg/ml; Fel d1 (cat), 1.25 mg/ml; ragweed, 125 mg/ml. The total level of endotoxin contamination in culture medium was 0.057 Eu/ml. The cPLA2 inhibitor 4-{3-[1-benzhydryl-5-chloro-2-(2-{[(2,6-dimethylbenzyl)sulfonyl]amino}ethyl)-1H-indol-3-yl]propyl}benzoic acid was used at a concentration of 0.3 μM/ml. Zileuton, a 5-lipoxygenase inhibitor, was added at a concentration of 5 μM. The inhibitory activity of both the cPLA2 inhibitor and Zileuton samples were verified in a human whole blood assay. After 6 days in culture approximately 200 μL of supernatant was removed using an 8-channel pipettor without disturbing the cell pellet and placed into a collection plate for cytokine ELISA assays. To the remaining cell pellet 100 μL of RLT lysis buffer containing 1% beta-mercaptoethanol was added and snap frozen for RNA purification.
RNA was purified using QIA shredders and Rneasy mini kits (Qiagen, Valencia, Calif.). PBMC pellets frozen in RLT lysis buffer containing 1% β-mercaptoethanol were thawed and processed for total RNA isolation using the QIA shredder and RNeasy mini kit. A phenol:chloroform extraction was then performed, and the RNA was repurified using the RNeasy mini kit reagents. Eluted RNA was quantified using a Spectramax96 well plate UV reader (Molecular Devices, Sunnyvale, Calif., USA) monitoring A260/280 OD values. The quality of each RNA sample was assessed by capillary electrophoresis alongside an RNA molecular weight ladder on the Agilent 2100 bioanalyzer (Agilent Technologies, Palo Alto, Calif., USA). RNA samples were assigned quality values of intact (distinct 18S and 28S bands); partially degraded (discernible 18S and 28S bands with presence of low molecular weight bands) or completely degraded (no discernible 18S and 28S bands).
Labeled targets for oligonucleotide arrays were prepared using a modification of the procedure described by Lockhart et al. (Lockhart (1996) Nat. Biotechnol. 14:1675-80). Labeled targets were hybridized to the HG-U133A Affymetrix GeneChip Array as described in the Affymetrix technical manual. Eleven biotinylated control transcripts ranging in abundance from 3 parts per million (ppm) to 100 ppm were spiked into each sample to function as a standard curve (Hill (2001) Genome Biol. 2:RESEARCH0055). GeneChip MAS 5.0 software was used to evaluate the hybridization intensity, compute the signal value for each probe set and make an absent/present call.
GeneChips were required to pass the pre-set quality control criteria that the RNA quality metric required a 5′:3′ ratio. Two asthma subjects were excluded from the study due to failure to meet the RNA quality metric and 2 GeneChips from the group treated with cPLA2a inhibitor were excluded for the same reason. The signal value for each probe set was converted into a frequency value representative of the number of transcripts present in 10^6 transcripts by reference to the standard curve (Hill (2001) Genome Biol. 2:RESEARCH0055). […]

With `Cc1cccc(C)c1CS(=O)(=O)NCCc1c(CCCc2ccc(C(=O)O)cc2)c2cc(Cl)ccc2n1C(c1ccccc1)c1ccccc1` [cPLA2 inhibitor, 4-{3-[1-benzhydryl-5-chloro-2-(2-{[(2,6-dimethylbenzyl)sulfonyl]amino}ethyl)-1H-indol-3-yl]propyl}benzoic acid] the “effect on gene expression in the absence of allergen stimulation, asthmatic population” value [1] was “does not affect gene expression”, the “all T cell responsive and cell cycle genes in the pathway (Network 1, FIG. 3A/3C)” value ([2]; allergen + inhibitor) was “significantly changed towards the levels in the healthy subject group” and the “allergen-induced increase in expression of T cell genes ZAP70, CD28, CD3D” value ([2]; allergen + inhibitor) was “abolished”. For the same molecule, the “genes initially down regulated in asthma samples in the presence of allergen, such as sialoadhesin (SN), CD84, TIMP3” value ([2]; allergen + inhibitor) was “up-regulated in the presence of inhibition”, the “genes up-regulated in asthma samples in response to allergen, such as ZAP70, LCK, MCM2” value ([2]; allergen + inhibitor) was “reduced to the levels seen in the allergen treated healthy controls” and the “other immune related genes: CD28, CD3D, IL-21R, HMGB1” value ([2]; allergen + inhibitor) was “downregulated”. The “every single probe in Network 1 in the asthmatic population” value ([2]; allergen + inhibitor, FIG. 3C) was “altered level of expression”, the “asthma specific gene expression (167 allergen-asthma specific probesets) in the presence of the inhibitor” value ([2]; compared to the allergen treatment alone, 0.3 μM/ml) was “altered” and the “Fold Change AOS Allergen vs. cPLA2 inhibitor” value ([2]; gene C10ORF3, probeset 218542_at) was −1.255. The “Fold Change AOS Allergen vs. cPLA2 inhibitor” value ([2]; gene CDC2, probeset 203213_at) was −1.163, the “Fold Change AOS Allergen vs. cPLA2 inhibitor” value ([2]; gene CHIT1, probeset 208168_s_at) was 2.803 and the “Fold Change AOS Allergen vs. cPLA2 inhibitor” value ([2]; gene DAB2, probeset 201279_s_at) was 2.442. For the same molecule, the “Fold Change AOS Allergen vs. cPLA2 inhibitor” value ([2]; gene DAB2, probeset 210757_x_at) was 2.524, the “Fold Change AOS Allergen vs. cPLA2 inhibitor” value ([2]; gene DUSP4, probeset 204014_at) was −1.393 and the “Fold Change AOS Allergen vs. cPLA2 inhibitor” value ([2]; gene DUSP4, probeset 204015_s_at) was −1.344. The “Fold Change AOS Allergen vs. cPLA2 inhibitor” value ([2]; gene FABP3, probeset 205738_s_at) was 2.574, the “Fold Change AOS Allergen vs. cPLA2 inhibitor” value ([2]; gene FLJ23311, probeset 219990_at) was −1.362 and the “Fold Change AOS Allergen vs. cPLA2 inhibitor” value ([2]; gene GM2A, probeset 33646_g_at) was 2.499. The “Fold Change AOS Allergen vs. cPLA2 inhibitor” value ([2]; gene GM2A, probeset 209727_at) was 2.415, the “Fold Change AOS Allergen vs. cPLA2 inhibitor” value ([2]; gene HS3ST2, probeset 219697_at) was 4.363 and the “Fold Change AOS Allergen vs. cPLA2 inhibitor” value ([2]; gene ME1, probeset 204059_s_at) was 2.986. For the same molecule, the “Fold Change AOS Allergen vs. cPLA2 inhibitor” value ([2]; gene MELK, probeset 204825_at) was −1.228, the “Fold Change AOS Allergen vs. cPLA2 inhibitor” value ([2]; gene OIP5, probeset 213599_at) was −1.141 and the “Fold Change AOS Allergen vs. cPLA2 inhibitor” value ([2]; gene PAPSS2, probeset 203060_s_at) was 2.162. For the same molecule, the “Fold Change AOS Allergen vs. cPLA2 inhibitor” value ([2]; gene PLEKHB2, probeset 201411_s_at) was 2.51, the “Fold Change AOS Allergen vs. cPLA2 inhibitor” value ([2]; gene POLG, probeset 213007_at) was −1.163 and the “Fold Change AOS Allergen vs. cPLA2 inhibitor” value ([2]; gene RACGAP1, probeset 222077_s_at) was −1.167. For the same molecule, the “Fold Change AOS Allergen vs. cPLA2 inhibitor” value ([2]; gene RUVBL1, probeset 201614_s_at) was −1.215, the “Fold Change AOS Allergen vs. cPLA2 inhibitor” value ([2]; gene SLC36A1, probeset 213119_at) was 2.385 and the “Fold Change AOS Allergen vs. cPLA2 inhibitor” value ([2]; gene SLC38A6, probeset 214830_at) was 2.908. For the same molecule, the “Fold Change AOS Allergen vs. cPLA2 inhibitor” value ([2]; gene SLC39A14, probeset 212110_at) was −1.323, the “Fold Change AOS Allergen vs. cPLA2 inhibitor” value ([2]; gene SLCO2B1, probeset 203472_s_at) was 2.698 and the “Fold Change AOS Allergen vs. cPLA2 inhibitor” value ([2]; gene SLCO2B1, probeset 203473_at) was 2.609. The “Fold Change AOS Allergen vs. cPLA2 inhibitor” value ([2]; gene SMC2L1, probeset 204240_s_at) was −1.245, the “Fold Change AOS Allergen vs. cPLA2 inhibitor” value ([2]; gene SN, probeset 219519_s_at) was 4.378 and the “Fold Change AOS Allergen vs. cPLA2 inhibitor” value ([2]; gene TRIP13, probeset 204033_at) was −1.358. For the same molecule, the “Fold Change AOS Allergen vs. cPLA2 inhibitor” value ([2]; gene UNK_AI859865, probeset 222036_s_at) was −1.203 and the “Fold Change AOS Allergen vs. cPLA2 inhibitor” value ([2]; gene UNK_BE966236, probeset 201890_at) was −1.167.
